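GI50 = concentration required for 50% inhibition of growth. TGI: total growth inhibition.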
How the values were obtained:
Assay in all cases: NCI-60 cell line screen, 384-well format
BT-549 breast = system: BT-549 breast
SF-295 CNS = system: SF-295 CNS
UACC-62 melanoma = system: UACC-62 melanoma
TK-10 renal = system: TK-10 renal
SNB-19 CNS = system: SNB-19 CNS
MCF7 breast = system: MCF7 breast
SK-MEL-28 melanoma = system: SK-MEL-28 melanoma
A549 NSCLC = system: A549 NSCLC
NCI-H522 lung = system: NCI-H522 lung
NCI-H226 lung = system: NCI-H226 lung
M14 melanoma = system: M14 melanoma
SK-MEL-5 melanoma = system: SK-MEL-5 melanoma
786-0 renal = system: 786-0 renal
CCRF-CEM leukemia = system: CCRF-CEM leukemia
NCI-H23 lung = system: NCI-H23 lung
OVCAR-5 ovarian = system: OVCAR-5 ovarian
U251 glioblastoma = system: U251 glioblastoma
SF-539 CNS = system: SF-539 CNS
UACC-257 melanoma = system: UACC-257 melanoma
SF-268 CNS = system: SF-268 CNS
RXF 393 renal = system: RXF 393 renal
OVCAR-3 ovarian = system: OVCAR-3 ovarian
OVCAR-4 ovarian = system: OVCAR-4 ovarian
CAKI-1 renal = system: CAKI-1 renal
NCI-H460 NSCLC = system: NCI-H460 NSCLC
OVCAR-8 ovarian = system: OVCAR-8 ovarian
SK-OV-3 ovarian = system: SK-OV-3 ovarian
RPMI-8226 leukemia = system: RPMI-8226 leukemia
MDA-MB-435 melanoma = system: MDA-MB-435 melanoma
HL-60(TB) leukemia = system: HL-60(TB) leukemia
MALME-3M melanoma = system: MALME-3M melanoma
COLO 205 colon = system: COLO 205 colon
HT29 colon = system: HT29 colon
A498 renal = system: A498 renal
T-47D breast = system: T-47D breast
HCT-116 colon = system: HCT-116 colon
NCI-H322M lung = system: NCI-H322M lung
NCI/ADR-RES ovarian = system: NCI/ADR-RES ovarian
HCC-2998 colon = system: HCC-2998 colon
ACHN renal = system: ACHN renal
SNB-75 CNS = system: SNB-75 CNS
SK-MEL-2 melanoma = system: SK-MEL-2 melanoma
DU-145 prostate = system: DU-145 prostate
HS 578T breast = system: HS 578T breast
HOP-92 NSCLC = system: HOP-92 NSCLC
MDA-MB-468 breast = system: MDA-MB-468 breast
MDA-MB-231 breast = system: MDA-MB-231 breast

For `Cn1cc(-c2ccc(-c3cncc(Cl)c3N3CCC4(CCNC4=O)CC3)cc2)cn1`, the GI50 (BT-549 breast) was 19.9 µM, the TGI (BT-549 breast) was 58.5 µM and the GI50 (SF-295 CNS) was 25.2 µM. The TGI (SF-295 CNS) was > 87.2 µM, the GI50 (UACC-62 melanoma) was 20.1 µM and the TGI (UACC-62 melanoma) was 58.1 µM. For the same compound, the GI50 (TK-10 renal) was 11.2 µM, the TGI (TK-10 renal) was 99.9 µM and the GI50 (SNB-19 CNS) was 47.4 µM. For the same compound, the TGI (SNB-19 CNS) was > 100 µM, the GI50 (MCF7 breast) was 15.9 µM and the TGI (MCF7 breast) was 52.8 µM. The GI50 (SK-MEL-28 melanoma) was 20 µM, the TGI (SK-MEL-28 melanoma) was > 65.3 µM and the GI50 (A549 NSCLC) was 24.5 µM. The TGI (A549 NSCLC) was 98 µM, the GI50 (NCI-H522 lung) was 13.1 µM and the TGI (NCI-H522 lung) was 48.2 µM. For the same compound, the GI50 (NCI-H226 lung) was 18.6 µM, the TGI (NCI-H226 lung) was 59.8 µM and the GI50 (M14 melanoma) was 39.4 µM. For the same compound, the TGI (M14 melanoma) was > 100 µM, the GI50 (SK-MEL-5 melanoma) was 15.6 µM and the TGI (SK-MEL-5 melanoma) was 33.5 µM. For the same compound, the GI50 (786-0 renal) was 11.8 µM, the TGI (786-0 renal) was > 92.2 µM and the GI50 (CCRF-CEM leukemia) was 8.63 µM. The TGI (CCRF-CEM leukemia) was 23.9 µM, the GI50 (NCI-H23 lung) was 22.5 µM and the TGI (NCI-H23 lung) was 59 µM. For the same compound, the GI50 (OVCAR-5 ovarian) was > 100 µM, the TGI (OVCAR-5 ovarian) was > 100 µM and the GI50 (U251 glioblastoma) was 30.4 µM. The TGI (U251 glioblastoma) was > 80.1 µM, the GI50 (SF-539 CNS) was 41.4 µM and the TGI (SF-539 CNS) was > 100 µM. The GI50 (UACC-257 melanoma) was 35.6 µM, the TGI (UACC-257 melanoma) was > 71.3 µM and the GI50 (SF-268 CNS) was 45.8 µM. For the same compound, the TGI (SF-268 CNS) was > 100 µM, the GI50 (RXF 393 renal) was 14.7 µM and the TGI (RXF 393 renal) was > 96.1 µM. It also gave a GI50 (OVCAR-3 ovarian) of 17.3 µM, a TGI (OVCAR-3 ovarian) of 51.3 µM and a GI50 (OVCAR-4 ovarian) of 39.6 µM. The TGI (OVCAR-4 ovarian) was > 90 µM, the GI50 (CAKI-1 renal) was 22.5 µM and the TGI (CAKI-1 renal) was > 100 µM. It also gave a GI50 (NCI-H460 NSCLC) of 21.1 µM, a TGI (NCI-H460 NSCLC) of 62.2 µM and a GI50 (OVCAR-8 ovarian) of 25.1 µM. For the same compound, the TGI (OVCAR-8 ovarian) was > 100 µM, the GI50 (SK-OV-3 ovarian) was 34 µM and the TGI (SK-OV-3 ovarian) was > 100 µM. For the same compound, the GI50 (RPMI-8226 leukemia) was 1170 nM, the TGI (RPMI-8226 leukemia) was 18.4 µM and the GI50 (MDA-MB-435 melanoma) was 30.1 µM. For the same compound, the TGI (MDA-MB-435 melanoma) was > 91.6 µM, the GI50 (HL-60(TB) leukemia) was 1730 nM and the TGI (HL-60(TB) leukemia) was 5.74 µM. For the same compound, the GI50 (MALME-3M melanoma) was 30.3 µM, the TGI (MALME-3M melanoma) was > 100 µM and the GI50 (COLO 205 colon) was 16.3 µM. The TGI (COLO 205 colon) was > 60 µM, the GI50 (HT29 colon) was 9.55 µM and the TGI (HT29 colon) was > 93.3 µM. It also gave a GI50 (A498 renal) of 4.45 µM, a TGI (A498 renal) of 33.1 µM and a GI50 (T-47D breast) of 13.5 µM. It also gave a TGI (T-47D breast) of 48.4 µM, a GI50 (HCT-116 colon) of 13.8 µM and a TGI (HCT-116 colon) of 47.3 µM. The GI50 (NCI-H322M lung) was 22.3 µM, the TGI (NCI-H322M lung) was > 95.3 µM and the GI50 (NCI/ADR-RES ovarian) was 22.1 µM. The TGI (NCI/ADR-RES ovarian) was > 71.5 µM, the GI50 (HCC-2998 colon) was 15.5 µM and the TGI (HCC-2998 colon) was 47.9 µM. The GI50 (ACHN renal) was 15.4 µM, the TGI (ACHN renal) was 81.9 µM and the GI50 (SNB-75 CNS) was 40 µM. The TGI (SNB-75 CNS) was > 95.9 µM, the GI50 (SK-MEL-2 melanoma) was 16.9 µM and the TGI (SK-MEL-2 melanoma) was 39.2 µM. For the same compound, the GI50 (DU-145 prostate) was 11 µM, the TGI (DU-145 prostate) was 62.2 µM and the GI50 (HS 578T breast) was 49.1 µM. The TGI (HS 578T breast) was > 100 µM, the GI50 (HOP-92 NSCLC) was 40.6 µM and the TGI (HOP-92 NSCLC) was > 100 µM. For the same compound, the GI50 (MDA-MB-468 breast) was 3.15 µM, the TGI (MDA-MB-468 breast) was 18.4 µM and the GI50 (MDA-MB-231 breast) was 17.1 µM. The TGI (MDA-MB-231 breast) was > 76.7 µM.
